From patent US10597388B2, “Pyridazinone herbicides” (FMC CORPORATION, priority 2014, dated 2020)

Key:
Assay type in all cases: in vivo
[1] = test system: kochia (Kochia scoparia); test: Test A greenhouse herbicide test, pre- and postemergence
Excerpt: (§1) Seeds of plant species selected from barnyardgrass (Echinochloa crus-galli), kochia (Kochia scoparia), ragweed (common ragweed, Ambrosia elatior), ryegrass, Italian (Italian ryegrass, Lolium multiflorum), crabgrass, large (large crabgrass, Digitaria sanguinalis), foxtail, giant (giant foxtail, Setaria faberii), momingglory (Ipomoea spp.), pigweed (Amaranthus retroflexus), velvetleaf (Abutilon theophrasti), wheat (Triticum aestivum), and corn (Zea mays) were planted into a blend of loam soil and sand and treated preemergence with a directed soil spray using test chemicals formulated in a non-phytotoxic solvent mixture which included a surfactant.
(§2) At the same time, plants selected from these crop and weed species and also blackgrass (Alopecurus myosuroides), and galium (catchweed bedstraw, Galium aparine) were planted in pots containing the same blend of loam soil and sand and treated with postemergence applications of test chemicals formulated in the same manner. Plants ranged in height from 2 to 10 cm and were in the one- to two-leaf stage for the postemergence treatment. Treated plants and untreated controls were maintained in a greenhouse for approximately 10 d, after which time all treated plants were compared to untreated controls and visually evaluated for injury. Plant response ratings, summarized in Table A, are based on a 0 to 100 scale where 0 is no effect and 100 is complete control. A dash (-) response means no test result.

[2] = test system: ryegrass, Italian (Italian ryegrass, Lolium multiflorum); test: as above
Excerpt: as §1, §2

[3] = test system: barnyardgrass (Echinochloa crus-galli); test: as above
Excerpt: as §1, §2

[4] = test system: pigweed (Amaranthus retroflexus); test: as above
Excerpt: as §1, §2

[5] = test system: foxtail, giant (giant foxtail, Setaria faberii); test: as above
Excerpt: as §1, §2

[6] = test system: corn (Zea mays); test: as above; conditions: Postemergence; for Plant response rating, Corn: 125 g ai/ha, 0 to 100 scale where 0 is no effect and 100 is complete control; for Corn plant response rating: 500 g ai/ha, 0 to 100 scale, 0 is no effect, 100 is complete control
Excerpt: as §1, §2

[7] = test system: wheat (Triticum aestivum); test: as above; conditions: Postemergence; for Plant response rating, Wheat: 125 g ai/ha, 0 to 100 scale where 0 is no effect and 100 is complete control; for Wheat plant response rating: 500 g ai/ha, 0 to 100 scale, 0 is no effect, 100 is complete control
Excerpt: as §1, §2

[8] = test system: ragweed (common ragweed, Ambrosia elatior); test: as above
Excerpt: as §1, §2

[9] = test system: galium (catchweed bedstraw, Galium aparine); test: Test A greenhouse herbicide test, postemergence; conditions: for Plant response rating, Galium: 125 g ai/ha, 0 to 100 scale where 0 is no effect and 100 is complete control; for Galium plant response rating: 500 g ai/ha, 0 to 100 scale, 0 is no effect, 100 is complete control
In short: (§3)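 Greenhouse postemergence test: formulated chemicals sprayed on one- to two-leaf plants (2 to 10 cm), grown in loam soil blended with sand. Injury assessed visually about 10 d later against untreated controls, scored 0 (no effect) to 100 (complete control).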

[10] = test system: blackgrass (Alopecurus myosuroides); test: Test A greenhouse herbicide test, postemergence; conditions: for Plant response rating, Blackgrass: 125 g ai/ha, 0 to 100 scale where 0 is no effect and 100 is complete control; for Blackgrass plant response rating: 500 g ai/ha, 0 to 100 scale, 0 is no effect, 100 is complete control
In short: as §3

[11] = test system: barnyardgrass (Echinochloa crus-galli); test: Test B flooded paddy test; conditions: 250 g ai/ha, Flood; visual rating on scale of 0 to 100 where 0 is no effect and 100 is complete control; 13 to 15 d after treatment
In short: (§4)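 Plants at the 2-leaf stage were flooded to 3 cm above soil, and test compounds were applied directly into the paddy water, which was held at that depth throughout. After 13 to 15 d in a greenhouse, injury was rated visually against untreated controls on a 0–100 scale (0 no effect, 100 complete control).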

[12] = test system: rice (Oryza sativa); test: Test B flooded paddy test; conditions: 250 g ai/ha, Flood; visual rating on scale of 0 to 100 where 0 is no effect and 100 is complete control; 13 to 15 d after treatment
In short: as §4

[13] = test system: sedge, umbrella (small-flower umbrella sedge, Cyperus difformis); test: Test B flooded paddy test; conditions: 250 g ai/ha, Flood; visual rating on scale of 0 to 100 where 0 is no effect and 100 is complete control; 13 to 15 d after treatment
In short: as §4

[14] = test system: ducksalad (Heteranthera limosa); test: Test B flooded paddy test; conditions: 250 g ai/ha, Flood; visual rating on scale of 0 to 100 where 0 is no effect and 100 is complete control; 13 to 15 d after treatment
In short: as §4

[15] = Postemergence, 125 g ai/ha, 0 to 100 scale where 0 is no effect and 100 is complete control
[16] = Postemergence, 500 g ai/ha, 0 to 100 scale, 0 is no effect, 100 is complete control
[17] = Preemergence, 125 g ai/ha, 0 to 100 scale where 0 is no effect and 100 is complete control
[18] = Preemergence, 500 g ai/ha, 0 to 100 scale, 0 no effect, 100 complete control

| Structure (SMILES) | Plant response rating, Kochia [1, 15] | Kochia plant response rating [1, 16] | Kochia plant response rating [1, 17] | Plant response rating, Kochia [1, 18] | Plant response rating, Ryegrass, Italian [2, 15] | Ryegrass, Italian plant response rating [2, 16] | Ryegrass, Italian plant response rating [2, 17] | Plant response rating, Ryegrass, Italian [2, 18] | Plant response rating, Barnyardgrass [3, 15] | Barnyardgrass plant response rating [3, 16] | Barnyardgrass plant response rating [3, 17] | Plant response rating, Barnyardgrass [3, 18] | Plant response rating, Pigweed [4, 15] | Pigweed plant response rating [4, 16] | Pigweed plant response rating [4, 17] | Plant response rating, Pigweed [4, 18] | Plant response rating, Foxtail, Giant [5, 15] | Foxtail, Giant plant response rating [5, 16] | Foxtail, Giant plant response rating [5, 17] | Plant response rating, Foxtail, Giant [5, 18] | also measured |
| --- | --- | --- | --- | --- | --- | --- | --- | --- | --- | --- | --- | --- | --- | --- | --- | --- | --- | --- | --- | --- | --- |
| CC(=O)Oc1c(C)nn(C)c(=O)c1-c1c(C)sc2cc(C)cc(C)c12 [Compound 44] | 0 | 0 | 0 | 0 | 0 | 0 | 0 | 0 | 0 | 0 | 0 | 0 | 0 | 0 | 0 | 0 | 0 | 0 | 0 | 0 | Plant response rating, Corn [6]: 0; Corn plant response rating [6]: 0; Plant response rating, Wheat [7]: 0; Wheat plant response rating [7]: 0; Plant response rating, Ragweed [8, 15]: 0; Ragweed plant response rating [8, 16]: 0; Ragweed plant response rating [8, 17]: 0; Plant response rating, Ragweed [8, 18]: 10; Plant response rating, Galium [9]: 30; Galium plant response rating [9]: 70; Plant response rating, Blackgrass [10]: 0; Blackgrass plant response rating [10]: 0; Plant response rating, Barnyardgrass [11]: 0; Plant response rating, Rice [12]: 0; Plant response rating, Sedge, Umbrella [13]: 0; Plant response rating, Ducksalad [14]: 0 |
| Cc1cc(C)c2c(-c3c(OC(=O)C(C)(C)C)c(C)nn(C)c3=O)c(C)sc2c1 [Compound 45] | 0 | 0 | 0 | 0 | 0 | 0 | 0 | 0 | 0 | 0 | 0 | 0 | 0 | 0 | 0 | 0 | 0 | 0 | 0 | 0 | Plant response rating, Corn [6]: 0; Corn plant response rating [6]: 0; Plant response rating, Wheat [7]: 0; Wheat plant response rating [7]: 0; Plant response rating, Ragweed [8, 15]: 0; Ragweed plant response rating [8, 16]: 0; Ragweed plant response rating [8, 17]: 0; Plant response rating, Ragweed [8, 18]: 0; Plant response rating, Galium [9]: 0; Galium plant response rating [9]: 0; Plant response rating, Blackgrass [10]: 0; Blackgrass plant response rating [10]: 0; Plant response rating, Barnyardgrass [11]: 0; Plant response rating, Rice [12]: 0; Plant response rating, Sedge, Umbrella [13]: 0; Plant response rating, Ducksalad [14]: 0 |
| Cc1ccc(-c2c(O)cnn(C)c2=O)c2ccccc12 [Compound 50] | 0 | 20 | 0 | 0 | 20 | 40 | 0 | 10 | 0 | 0 | 0 | 0 | 20 | 50 | 0 | 0 | 0 | 0 | 0 | 0 | Plant response rating, Corn [6]: 0; Corn plant response rating [6]: 0; Plant response rating, Wheat [7]: 0; Wheat plant response rating [7]: 0; Plant response rating, Ragweed [8, 15]: 0; Ragweed plant response rating [8, 16]: 20; Ragweed plant response rating [8, 17]: 0; Plant response rating, Ragweed [8, 18]: 0; Plant response rating, Galium [9]: 60; Galium plant response rating [9]: 80; Plant response rating, Blackgrass [10]: 0; Blackgrass plant response rating [10]: 10; Plant response rating, Barnyardgrass [11]: 0; Plant response rating, Rice [12]: 0; Plant response rating, Sedge, Umbrella [13]: 0; Plant response rating, Ducksalad [14]: 0 |
